Test results from patent publication US10617681B2, “1-arylalkyl-4-acylaminopiperidine compounds” (ARIZONA BOARD OF REGENTS ON BEHALF OF THE UNIVERSITY OF …, priority 2014, dated 2020).

Experiments:
μ (MOP) [1] = biological target: T1, μ (MOP) (Homo sapiens, UniProt P35372); assay: Cellular functional assay, antagonist effect, μ (MOP); format: cell-based; conditions: antagonist mode
CYP2B6 = biological target: T2, CYP2B6 (Homo sapiens, UniProt P20813); assay: CYP inhibition, CYP2B6
T2 sequence (P20813 1-491): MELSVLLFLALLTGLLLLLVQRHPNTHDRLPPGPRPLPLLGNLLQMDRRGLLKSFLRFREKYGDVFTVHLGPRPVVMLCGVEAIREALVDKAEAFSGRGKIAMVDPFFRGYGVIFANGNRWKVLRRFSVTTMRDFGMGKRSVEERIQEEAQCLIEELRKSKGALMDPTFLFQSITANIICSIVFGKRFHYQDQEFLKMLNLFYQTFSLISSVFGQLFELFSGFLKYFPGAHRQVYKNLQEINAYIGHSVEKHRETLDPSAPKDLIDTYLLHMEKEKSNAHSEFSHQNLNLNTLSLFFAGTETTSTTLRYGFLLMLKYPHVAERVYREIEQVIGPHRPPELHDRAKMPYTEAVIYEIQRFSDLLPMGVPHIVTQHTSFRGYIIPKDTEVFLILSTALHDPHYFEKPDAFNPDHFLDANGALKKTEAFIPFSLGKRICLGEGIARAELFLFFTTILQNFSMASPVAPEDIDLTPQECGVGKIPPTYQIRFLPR

CYP3A4 = CYP3A4 (Homo sapiens, UniProt P08684); assay: CYP inhibition, CYP3A4; conditions: with either substrate
Sequence of CYP3A4 (P08684 whole entry): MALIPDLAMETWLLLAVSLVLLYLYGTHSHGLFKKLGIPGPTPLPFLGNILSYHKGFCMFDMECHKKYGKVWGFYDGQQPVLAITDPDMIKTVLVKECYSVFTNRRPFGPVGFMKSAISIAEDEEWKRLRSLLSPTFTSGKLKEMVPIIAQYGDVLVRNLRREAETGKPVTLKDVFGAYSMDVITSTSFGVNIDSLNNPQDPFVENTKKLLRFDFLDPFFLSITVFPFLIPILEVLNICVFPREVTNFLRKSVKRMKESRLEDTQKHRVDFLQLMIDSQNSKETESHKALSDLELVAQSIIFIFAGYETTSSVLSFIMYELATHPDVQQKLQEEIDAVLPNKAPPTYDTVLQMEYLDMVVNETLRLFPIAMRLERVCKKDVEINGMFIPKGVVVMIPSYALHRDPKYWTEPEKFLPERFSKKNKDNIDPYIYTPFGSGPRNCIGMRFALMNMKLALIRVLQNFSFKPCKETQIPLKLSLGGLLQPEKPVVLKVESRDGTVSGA

[2] = In vitro metabolic disposition in rat microsomes; format: in vitro ADME; conditions: rat pooled liver microsomes, 0-45 minutes
Experimental: (§1) Compound HCV-3 also was subjected to in vitro metabolic disposition in mouse, rat, monkey and human microsomes. The test compound was incubated with pooled liver microsomes, since […] stability in liver microsomes can be predictive of drug stability in vivo. Aliquots were taken at 0, 5, 15, 30 and 45 minutes and quenched immediately. The samples were extracted and analyzed by LC-MS/MS.

CYP2D6 = CYP2D6 (Homo sapiens, UniProt P10635); assay: CYP inhibition, CYP2D6
Sequence of CYP2D6 (P10635 whole entry): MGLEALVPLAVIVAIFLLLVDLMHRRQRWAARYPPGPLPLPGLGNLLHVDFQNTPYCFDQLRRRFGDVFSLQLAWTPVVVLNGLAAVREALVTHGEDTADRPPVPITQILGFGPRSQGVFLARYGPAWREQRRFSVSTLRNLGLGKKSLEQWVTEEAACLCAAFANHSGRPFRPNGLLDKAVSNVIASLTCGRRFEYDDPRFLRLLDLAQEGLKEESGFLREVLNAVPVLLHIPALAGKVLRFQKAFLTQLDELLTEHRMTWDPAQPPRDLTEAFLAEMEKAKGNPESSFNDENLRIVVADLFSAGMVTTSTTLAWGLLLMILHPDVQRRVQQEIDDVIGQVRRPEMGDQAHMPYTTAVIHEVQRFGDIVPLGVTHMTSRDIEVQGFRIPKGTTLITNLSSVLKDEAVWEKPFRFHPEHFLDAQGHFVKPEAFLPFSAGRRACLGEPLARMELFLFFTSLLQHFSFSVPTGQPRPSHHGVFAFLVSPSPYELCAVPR

CYP2C8 = biological target: T3, CYP2C8 (Homo sapiens, UniProt P10632); assay: CYP inhibition, CYP2C8
T3 sequence (P10632 1-490): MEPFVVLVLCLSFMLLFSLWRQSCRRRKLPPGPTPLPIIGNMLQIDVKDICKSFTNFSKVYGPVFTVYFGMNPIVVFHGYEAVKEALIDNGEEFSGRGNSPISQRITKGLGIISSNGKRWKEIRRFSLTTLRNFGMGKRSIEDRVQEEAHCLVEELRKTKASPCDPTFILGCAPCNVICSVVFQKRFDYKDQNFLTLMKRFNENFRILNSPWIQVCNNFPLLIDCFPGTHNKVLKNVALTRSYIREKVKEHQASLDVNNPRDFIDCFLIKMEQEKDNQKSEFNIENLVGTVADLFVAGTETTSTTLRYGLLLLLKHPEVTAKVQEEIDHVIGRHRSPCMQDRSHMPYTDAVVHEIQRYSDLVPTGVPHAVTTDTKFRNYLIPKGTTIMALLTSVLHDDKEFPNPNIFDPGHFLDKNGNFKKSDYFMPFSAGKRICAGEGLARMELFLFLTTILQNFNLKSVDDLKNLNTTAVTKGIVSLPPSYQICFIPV

[3] = In vitro metabolic disposition in monkey microsomes; format: in vitro ADME; conditions: monkey pooled liver microsomes, 0-45 minutes
Experimental: as §1

μ (MOP) [4] = biological target: T1, μ (MOP); assay: Cellular functional assay, agonist effect, μ (MOP); format: cell-based; conditions: agonist mode
κ (KOP) [5] = biological target: T4, κ (KOP) (Rattus norvegicus, UniProt P34975); assay: Cellular functional assay, agonist effect, κ (KOP); format: cell-based; conditions: agonist mode
T4 sequence (P34975 whole entry): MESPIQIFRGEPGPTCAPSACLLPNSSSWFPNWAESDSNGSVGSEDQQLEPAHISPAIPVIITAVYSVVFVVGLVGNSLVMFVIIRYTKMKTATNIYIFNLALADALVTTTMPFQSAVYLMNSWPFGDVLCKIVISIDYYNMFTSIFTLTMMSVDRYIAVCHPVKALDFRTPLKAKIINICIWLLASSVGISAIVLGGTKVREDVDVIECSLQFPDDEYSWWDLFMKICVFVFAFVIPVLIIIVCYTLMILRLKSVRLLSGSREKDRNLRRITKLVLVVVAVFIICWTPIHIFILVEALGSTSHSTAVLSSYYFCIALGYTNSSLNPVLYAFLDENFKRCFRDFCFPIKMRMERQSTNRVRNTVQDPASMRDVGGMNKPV

P-gp = assay: MDCK permeability assay; conditions: dog, MDCK
MDCK = MDCK permeability assay
α2B(h) [6] = biological target: T5, α2B(h) (Homo sapiens, UniProt P18089); assay: Cellular functional assay, antagonist effect, α2B; format: cell-based; conditions: antagonist mode
T5 sequence (P18089 1-450): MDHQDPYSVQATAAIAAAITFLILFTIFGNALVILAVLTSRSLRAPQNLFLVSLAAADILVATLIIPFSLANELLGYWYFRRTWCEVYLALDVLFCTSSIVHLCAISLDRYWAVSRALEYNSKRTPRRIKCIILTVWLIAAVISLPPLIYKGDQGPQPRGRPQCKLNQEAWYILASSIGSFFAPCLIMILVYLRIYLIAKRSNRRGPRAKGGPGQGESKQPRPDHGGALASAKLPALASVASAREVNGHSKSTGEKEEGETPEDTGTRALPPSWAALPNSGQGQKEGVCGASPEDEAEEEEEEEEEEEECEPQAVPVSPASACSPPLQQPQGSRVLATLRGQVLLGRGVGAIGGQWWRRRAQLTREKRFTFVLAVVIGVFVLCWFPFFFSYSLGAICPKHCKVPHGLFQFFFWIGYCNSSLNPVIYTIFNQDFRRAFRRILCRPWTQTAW

CYP1A2 = biological target: T6, CYP1A2 (Homo sapiens, UniProt P05177); assay: CYP inhibition, CYP1A2
T6 sequence (P05177 1-516): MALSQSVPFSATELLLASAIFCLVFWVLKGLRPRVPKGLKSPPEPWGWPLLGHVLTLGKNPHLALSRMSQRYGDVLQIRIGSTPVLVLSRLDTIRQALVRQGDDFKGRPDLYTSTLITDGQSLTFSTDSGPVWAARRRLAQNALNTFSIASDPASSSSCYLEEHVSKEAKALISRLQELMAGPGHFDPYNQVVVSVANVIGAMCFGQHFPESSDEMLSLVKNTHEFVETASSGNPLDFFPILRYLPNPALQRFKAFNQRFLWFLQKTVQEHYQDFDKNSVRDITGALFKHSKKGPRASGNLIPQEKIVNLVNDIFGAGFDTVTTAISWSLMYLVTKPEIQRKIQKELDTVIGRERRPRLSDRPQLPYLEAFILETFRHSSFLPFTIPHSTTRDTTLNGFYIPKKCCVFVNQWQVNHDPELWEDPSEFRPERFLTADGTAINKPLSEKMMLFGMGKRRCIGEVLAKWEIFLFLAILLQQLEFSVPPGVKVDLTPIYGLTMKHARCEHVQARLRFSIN

hERG = hERG (Homo sapiens, UniProt Q12809); assay: hERG inhibition; format: cell-based
Sequence of hERG (Q12809 whole entry): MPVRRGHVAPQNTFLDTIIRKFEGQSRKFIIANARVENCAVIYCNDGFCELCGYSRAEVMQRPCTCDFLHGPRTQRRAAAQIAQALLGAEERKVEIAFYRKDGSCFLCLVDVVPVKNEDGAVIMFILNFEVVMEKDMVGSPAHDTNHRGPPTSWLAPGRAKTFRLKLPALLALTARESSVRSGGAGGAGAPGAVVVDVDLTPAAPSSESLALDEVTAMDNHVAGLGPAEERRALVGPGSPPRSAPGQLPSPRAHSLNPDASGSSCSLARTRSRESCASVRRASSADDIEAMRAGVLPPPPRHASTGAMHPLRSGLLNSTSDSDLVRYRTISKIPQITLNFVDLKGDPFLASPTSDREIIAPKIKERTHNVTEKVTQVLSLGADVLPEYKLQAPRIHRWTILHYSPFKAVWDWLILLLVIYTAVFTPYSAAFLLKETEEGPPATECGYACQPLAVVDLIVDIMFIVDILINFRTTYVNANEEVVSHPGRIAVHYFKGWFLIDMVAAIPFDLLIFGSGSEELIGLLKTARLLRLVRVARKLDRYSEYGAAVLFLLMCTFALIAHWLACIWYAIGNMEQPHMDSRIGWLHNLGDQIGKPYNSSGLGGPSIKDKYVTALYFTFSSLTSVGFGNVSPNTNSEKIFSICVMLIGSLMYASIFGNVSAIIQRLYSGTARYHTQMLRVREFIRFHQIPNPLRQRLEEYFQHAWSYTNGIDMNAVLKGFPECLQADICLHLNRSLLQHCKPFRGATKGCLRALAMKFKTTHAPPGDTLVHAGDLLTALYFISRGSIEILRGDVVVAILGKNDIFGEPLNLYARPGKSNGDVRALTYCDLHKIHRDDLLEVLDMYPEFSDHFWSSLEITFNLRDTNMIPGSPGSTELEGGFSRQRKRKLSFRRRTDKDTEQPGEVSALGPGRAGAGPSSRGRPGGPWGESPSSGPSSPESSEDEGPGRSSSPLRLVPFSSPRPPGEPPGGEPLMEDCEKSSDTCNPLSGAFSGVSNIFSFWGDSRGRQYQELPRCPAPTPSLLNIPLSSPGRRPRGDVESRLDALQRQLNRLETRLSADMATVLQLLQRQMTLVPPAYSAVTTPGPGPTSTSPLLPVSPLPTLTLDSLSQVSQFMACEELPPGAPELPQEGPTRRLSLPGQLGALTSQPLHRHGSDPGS
Experimental: Compound HCV-3 also was tested for hERG inhibition. Over the concentration range tested (up to 25 micromolar) no dose-response was obtained. […] The control compounds behaved as expected in the assay.

[7] = In vitro metabolic disposition in human microsomes; format: in vitro ADME; conditions: human pooled liver microsomes, 0-45 minutes
Experimental: as §1

[8] = In vitro metabolic disposition in mouse microsomes; format: in vitro ADME; conditions: mouse pooled liver microsomes, 0-45 minutes
Experimental: as §1

TA98 = assay: AMES testing, strain TA98; format: cell-based; conditions: TA98, up to 1 mg/mL, absence and presence of S9 metabolic activation
Experimental: (§2) Compound HCV-3 was negative for genotoxicity against both strains used in this assay (TA98 and TA 100) up to a maximum tested concentration of 1 mg/mL, in both the absence and presence of S9 metabolic activation. The assay controls behaved as expected.

κ (KOP) [9] = biological target: T4, κ (KOP); assay: Cellular functional assay, antagonist effect, κ (KOP); format: cell-based
CYP2C9 = CYP2C9 (Homo sapiens, UniProt P11712); assay: CYP inhibition, CYP2C9
Sequence of CYP2C9 (P11712 whole entry): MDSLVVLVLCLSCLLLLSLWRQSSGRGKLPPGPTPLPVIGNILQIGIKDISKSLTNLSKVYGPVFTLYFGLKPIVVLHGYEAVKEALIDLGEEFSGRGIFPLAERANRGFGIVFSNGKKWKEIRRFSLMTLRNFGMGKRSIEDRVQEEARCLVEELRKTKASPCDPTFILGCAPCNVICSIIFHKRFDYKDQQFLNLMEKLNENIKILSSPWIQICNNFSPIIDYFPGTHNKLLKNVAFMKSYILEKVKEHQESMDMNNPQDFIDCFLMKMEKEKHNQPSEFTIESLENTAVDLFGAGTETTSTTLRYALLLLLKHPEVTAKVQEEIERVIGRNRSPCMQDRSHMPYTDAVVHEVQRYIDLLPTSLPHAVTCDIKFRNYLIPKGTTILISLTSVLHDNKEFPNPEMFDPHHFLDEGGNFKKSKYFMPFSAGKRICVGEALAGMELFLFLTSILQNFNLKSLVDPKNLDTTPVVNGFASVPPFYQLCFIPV

α2B(h) [10] = biological target: T5, α2B(h); assay: Cellular functional assay, agonist effect, α2B; format: cell-based
TA 100 = assay: AMES testing, strain TA 100; format: cell-based; conditions: TA 100, up to 1 mg/mL, absence and presence of S9 metabolic activation
Experimental: as §2

CYP2C19 = CYP2C19 (Homo sapiens, UniProt P33261); assay: CYP inhibition, CYP2C19
Sequence of CYP2C19 (P33261 whole entry): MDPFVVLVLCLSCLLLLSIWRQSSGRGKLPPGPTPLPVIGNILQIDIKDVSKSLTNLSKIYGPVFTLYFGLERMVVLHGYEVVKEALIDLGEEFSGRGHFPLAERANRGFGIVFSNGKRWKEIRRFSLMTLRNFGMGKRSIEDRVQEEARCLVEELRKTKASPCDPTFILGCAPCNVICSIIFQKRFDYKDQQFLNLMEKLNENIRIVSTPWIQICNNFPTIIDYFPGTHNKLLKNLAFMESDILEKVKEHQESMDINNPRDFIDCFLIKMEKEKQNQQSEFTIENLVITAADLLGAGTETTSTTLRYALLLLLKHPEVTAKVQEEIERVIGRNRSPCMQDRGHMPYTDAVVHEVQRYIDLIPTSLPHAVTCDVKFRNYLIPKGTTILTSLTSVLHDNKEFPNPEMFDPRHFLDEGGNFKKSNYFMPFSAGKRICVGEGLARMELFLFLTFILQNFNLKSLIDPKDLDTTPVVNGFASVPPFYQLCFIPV

T1 sequence (P35372 whole entry): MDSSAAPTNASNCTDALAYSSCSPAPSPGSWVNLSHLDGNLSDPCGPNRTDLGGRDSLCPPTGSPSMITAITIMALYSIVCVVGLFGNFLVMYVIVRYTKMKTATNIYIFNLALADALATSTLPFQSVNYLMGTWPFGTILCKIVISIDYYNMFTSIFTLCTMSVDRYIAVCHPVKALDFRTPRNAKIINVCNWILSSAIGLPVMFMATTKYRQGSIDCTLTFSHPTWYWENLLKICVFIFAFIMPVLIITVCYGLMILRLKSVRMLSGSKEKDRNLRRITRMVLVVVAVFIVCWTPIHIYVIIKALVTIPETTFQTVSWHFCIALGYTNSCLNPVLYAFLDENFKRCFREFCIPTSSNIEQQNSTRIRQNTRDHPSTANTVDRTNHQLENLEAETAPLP

Compound: CCC(=O)NC1CCN(CCc2ccccc2)CC1 [HCV-3, N-(1-phenethylpiperidin-4-yl)propionamide]
- Agonist Response (% of Control), 1st (μ (MOP) [1]; 1.0E−05, first replicate): 100.1 % of Control
- Agonist Response (% of Control), Mean (μ (MOP) [1]; 1.0E−05, mean): 101.0 % of Control
- Agonist Response (% of Control), 2nd (μ (MOP) [1]; 1.0E−05, second replicate): 101.8 % of Control
- % Inhibition of Control Agonist Response (μ (MOP) [1]; test concentration 1.0E−05): −1%
- CYP2B6 inhibition (CYP2B6): No inhibition
- CYP3A4 inhibition (CYP3A4): No inhibition
- clearance [2]: moderate clearance
- CYP2D6 inhibitor category (CYP2D6): moderate CYP2D6 inhibitor
- IC50 (CYP2D6): 4200 nM
- CYP2C8 inhibition (CYP2C8): No inhibition
- clearance [3]: low clearance
- % of Control Agonist Response, 1st (μ (MOP) [4]; 1.0E−05, first replicate): 28.1%
- % of Control Agonist Response, Mean (μ (MOP) [4]; 1.0E−05, mean): 33.5%
- % of Control Agonist Response, 2nd (μ (MOP) [4]; 1.0E−05, second replicate): 38.9%
- % of Control Agonist Response (μ (MOP) [4]; test concentration 1.0E−05): 33.5%
- % of Control Agonist Response, 1st (κ (KOP) [5]; 1.0E−05, first replicate): −10.3%
- % of Control Agonist Response, Mean (κ (KOP) [5]; 1.0E−05, mean): −4.2%
- % of Control Agonist Response, 2nd (κ (KOP) [5]; 1.0E−05, second replicate): 1.8%
- % of Control Agonist Response (κ (KOP) [5]; test concentration 1.0E−05): −4.2%
- efflux ratio (P-gp): 1.48
- permeability (MDCK; MDCK assay): highly permeable
- Agonist Response (% of Control), 1st (α2B(h) [6]; 1.0E−05, first replicate): 116.8 % of Control
- Agonist Response (% of Control), Mean (α2B(h) [6]; 1.0E−05, mean): 127.8 % of Control
- Agonist Response (% of Control), 2nd (α2B(h) [6]; 1.0E−05, second replicate): 138.7 % of Control
- % Inhibition of Control Agonist Response (α2B(h) [6]; test concentration 1.0E−05): −28%
- CYP1A2 inhibition (CYP1A2): No inhibition
- hERG inhibition category (hERG): weak or no hERG inhibition
- IC50 (hERG; concentration range tested up to 25 micromolar): > 25000 nM
- inhibition at 25 micromolar (hERG; human, at the top concentration of 25 micromolar): 32.5%
- clearance [7]: low clearance
- clearance [8]: low clearance
- genotoxicity (TA98): negative
- Agonist Response (% of Control), 1st (κ (KOP) [9]; antagonist mode, 1.0E−05, first replicate): 112.4 % of Control
- Agonist Response (% of Control), Mean (κ (KOP) [9]; antagonist mode, 1.0E−05, mean): 94.4 % of Control
- Agonist Response (% of Control), 2nd (κ (KOP) [9]; antagonist mode, 1.0E−05, second replicate): 76.5 % of Control
- % Inhibition of Control Agonist Response (κ (KOP) [9]; antagonist mode, test concentration 1.0E−05): 6%
- CYP2C9 inhibition (CYP2C9): No inhibition
- % of Control Agonist Response, 1st (α2B(h) [10]; agonist mode, 1.0E−05, first replicate): 9.2%
- % of Control Agonist Response, Mean (α2B(h) [10]; agonist mode, 1.0E−05, mean): 7.1%
- % of Control Agonist Response, 2nd (α2B(h) [10]; agonist mode, 1.0E−05, second replicate): 5.1%
- % of Control Agonist Response (α2B(h) [10]; agonist mode, test concentration 1.0E−05): 7.1%
- genotoxicity (TA 100): negative
- CYP2C19 inhibitor category (CYP2C19): weak CYP2C19 inhibitor
- inhibition at 25 micromolar (CYP2C19): 36.4%

Compound: Cc1cccc([C@H](C)c2c[nH]cn2)c1C [dexmedetc, reference compound]
- EC50 (α2B(h) [10]; reference agonist, read-out: Reference EC50 Ref): 13 nM

Compound: Oc1ccc2c3c1O[C@H]1c4[nH]c5c(c4C[C@@]4(O)[C@@H](C2)N(CC2CC2)CC[C@]314)C[C@@]1(O)[C@H]2Cc3ccc(O)c4c3[C@@]1(CCN2CC1CC1)[C@H]5O4 [nor-BNI, reference compound]
- Kb (κ (KOP) [9]; reference antagonist, read-out: Reference Kb Ref): 0.072 nM

Compound: COc1cc2nc(N3CCN(C(=O)c4ccco4)CC3)nc(N)c2cc1OC [prazosin, reference compound]
- efflux (control compound) (MDCK; in the absence of Cyclosporin A): showing efflux
- efflux (control compound) (MDCK; in the presence of Cyclosporin A): inhibited
